In PMC5439695 (PLoS ONE, 2017):
Read-outs that look alike come from different tables or passages of the source.

Legend:
HEK293 cells [1] = details: HEK293 flor
HEK293 cells [2] = assay: cells; details: Homo sapiens
HepG2 cells [3] = assay: CellTox Green Cytotoxicity Assay (flor) in HepG2, HepG2[flor]; type: cell-based, human; details: HepG2 flor; for EC50: Homo sapiens, given as negative log-scale values;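 as to hepg2 flor emax 0: percent activity versus DMSO-only wells with baseline rescaled to 0%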;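 as to hepg2 flor emax 40: percent activity versus DMSO-only wells with baseline rescaled to 0%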
HEK293 cells [4] = details: HEK293 glo
HepG2 cells [5] = assay: cells; details: Homo sapiens
HepG2 cells [6] = details: HepG2 glo
HEK293 cells [7] = assay: cells; details: Homo sapiens; remark: listed apart in the source
[8] = test system: HEK293 and HepG2 cell lines; details: any activity in any time point/assay
NRF2 = details: cited from earlier work

With `CC(C)=CCC/C(C)=C/CO` [Geraniol] the hek293_flor_auc (HEK293 cells [1]) was 0, the hek293_flor_time (HEK293 cells [1]) was 48 and the hek293_flor_bin (HEK293 cells [1]; kinetics bin) was “inactive”. The hek293_flor_emax_0 (HEK293 cells [1]; time point 0) was 0, the hek293_flor_pod_0 (HEK293 cells [1]; time point 0) was -4.417 and the hek293_flor_wauc_0 (HEK293 cells [1]; time point 0) was 0. For the same molecule, the hek293_flor_emax_8 (HEK293 cells [1]; time point 8) was 0, the hek293_flor_pod_8 (HEK293 cells [1]; time point 8) was -4.417 and the hek293_flor_wauc_8 (HEK293 cells [1]; time point 8) was 0. The hek293_flor_emax_16 (HEK293 cells [1]; time point 16) was 0, the hek293_flor_pod_16 (HEK293 cells [1]; time point 16) was -4.417 and the hek293_flor_wauc_16 (HEK293 cells [1]; time point 16) was 0. For the same molecule, the hek293_flor_emax_24 (HEK293 cells [1]; time point 24) was 0, the hek293_flor_pod_24 (HEK293 cells [1]; time point 24) was -4.417 and the hek293_flor_wauc_24 (HEK293 cells [1]; time point 24) was 0. It also gave a hek293_flor_emax_32 (HEK293 cells [1]; time point 32) of 0, a hek293_flor_pod_32 (HEK293 cells [1]; time point 32) of -4.417 and a hek293_flor_wauc_32 (HEK293 cells [1]; time point 32) of 0. It also gave a hek293_flor_emax_40 (HEK293 cells [1]; time point 40) of 0, a hek293_flor_pod_40 (HEK293 cells [1]; time point 40) of -4.417 and a hek293_flor_wauc_40 (HEK293 cells [1]; time point 40) of 0. The EC50 (HEK293 cells [2]; HEK293, read-out: hek293_glo_ec50_0) was over 38.3 µM, the EC50 (HEK293 cells [2]; HEK293, read-out: hek293_glo_ec50_8) was over 38.3 µM and the EC50 (HEK293 cells [2]; HEK293, read-out: hek293_glo_ec50_16) was over 38.3 µM. It also gave an EC50 (HEK293 cells [2]; HEK293, read-out: hek293_glo_ec50_24) of over 38.3 µM, an EC50 (HEK293 cells [2]; HEK293, read-out: hek293_glo_ec50_32) of over 38.3 µM and an EC50 (HEK293 cells [2]; HEK293, read-out: hek293_glo_ec50_40) of over 38.3 µM. The hepg2_flor_auc (HepG2 cells [3]) was 0, the hepg2_flor_time (HepG2 cells [3]) was 48 and the hepg2_flor_bin (HepG2 cells [3]; kinetics bin) was “inactive”. The hepg2_flor_emax_0 (HepG2 cells [3]; time point 0) was 0, the hepg2_flor_pod_0 (HepG2 cells [3]; time point 0) was -4.417 and the hepg2_flor_wauc_0 (HepG2 cells [3]; time point 0) was 0. It also gave a hepg2_flor_emax_8 (HepG2 cells [3]; time point 8) of 0, a hepg2_flor_pod_8 (HepG2 cells [3]; time point 8) of -4.417 and a hepg2_flor_wauc_8 (HepG2 cells [3]; time point 8) of 0. The hepg2_flor_emax_16 (HepG2 cells [3]; time point 16) was 0, the hepg2_flor_pod_16 (HepG2 cells [3]; time point 16) was -4.417 and the hepg2_flor_wauc_16 (HepG2 cells [3]; time point 16) was 0. It also gave a hepg2_flor_emax_24 (HepG2 cells [3]; time point 24) of 0, a hepg2_flor_pod_24 (HepG2 cells [3]; time point 24) of -4.417 and a hepg2_flor_wauc_24 (HepG2 cells [3]; time point 24) of 0. The hepg2_flor_emax_32 (HepG2 cells [3]; time point 32) was 0, the hepg2_flor_pod_32 (HepG2 cells [3]; time point 32) was -4.417 and the hepg2_flor_wauc_32 (HepG2 cells [3]; time point 32) was 0. The hepg2_flor_emax_40 (HepG2 cells [3]; time point 40) was 0, the hepg2_flor_pod_40 (HepG2 cells [3]; time point 40) was -4.417 and the hepg2_flor_wauc_40 (HepG2 cells [3]; time point 40) was 0. For the same molecule, the EC50 (HepG2 cells [3]; time point 0, read-out: hepg2_flor_ec50_0) was over 38.3 µM, the EC50 (HepG2 cells [3]; time point 8, read-out: hepg2_flor_ec50_8) was over 38.3 µM and the EC50 (HepG2 cells [3]; time point 16, read-out: hepg2_flor_ec50_16) was over 38.3 µM. It also gave an EC50 (HepG2 cells [3]; time point 24, read-out: hepg2_flor_ec50_24) of over 38.3 µM, an EC50 (HepG2 cells [3]; time point 32, read-out: hepg2_flor_ec50_32) of over 38.3 µM and an EC50 (HepG2 cells [3]; time point 40, read-out: hepg2_flor_ec50_40) of over 38.3 µM. The hek293_glo_auc (HEK293 cells [4]) was 0, the hek293_glo_time (HEK293 cells [4]) was 48 and the hek293_glo_bin (HEK293 cells [4]; kinetics bin) was “inactive”. The hek293_glo_emax_0 (HEK293 cells [4]; time point 0) was 0, the hek293_glo_pod_0 (HEK293 cells [4]; time point 0) was -4.417 and the hek293_glo_wauc_0 (HEK293 cells [4]; time point 0) was 0. For the same molecule, the hek293_glo_emax_8 (HEK293 cells [4]; time point 8) was 0, the hek293_glo_pod_8 (HEK293 cells [4]; time point 8) was -4.417 and the hek293_glo_wauc_8 (HEK293 cells [4]; time point 8) was 0. It also gave a hek293_glo_emax_16 (HEK293 cells [4]; time point 16) of 0, a hek293_glo_pod_16 (HEK293 cells [4]; time point 16) of -4.417 and a hek293_glo_wauc_16 (HEK293 cells [4]; time point 16) of 0. For the same molecule, the hek293_glo_emax_24 (HEK293 cells [4]; time point 24) was 0, the hek293_glo_pod_24 (HEK293 cells [4]; time point 24) was -4.417 and the hek293_glo_wauc_24 (HEK293 cells [4]; time point 24) was 0. The hek293_glo_emax_32 (HEK293 cells [4]; time point 32) was 0, the hek293_glo_pod_32 (HEK293 cells [4]; time point 32) was -4.417 and the hek293_glo_wauc_32 (HEK293 cells [4]; time point 32) was 0. It also gave a hek293_glo_emax_40 (HEK293 cells [4]; time point 40) of 0, a hek293_glo_pod_40 (HEK293 cells [4]; time point 40) of -4.417 and a hek293_glo_wauc_40 (HEK293 cells [4]; time point 40) of 0. For the same molecule, the EC50 (HepG2 cells [5]; HepG2, read-out: hepg2_glo_ec50_0) was over 38.3 µM, the EC50 (HepG2 cells [5]; HepG2, read-out: hepg2_glo_ec50_8) was over 38.3 µM and the EC50 (HepG2 cells [5]; HepG2, read-out: hepg2_glo_ec50_16) was over 38.3 µM. It also gave an EC50 (HepG2 cells [5]; HepG2, read-out: hepg2_glo_ec50_24) of over 38.3 µM, an EC50 (HepG2 cells [5]; HepG2, read-out: hepg2_glo_ec50_32) of over 38.3 µM and an EC50 (HepG2 cells [5]; HepG2, read-out: hepg2_glo_ec50_40) of over 38.3 µM. The hepg2_glo_auc (HepG2 cells [6]) was 0, the hepg2_glo_time (HepG2 cells [6]) was 48 and the hepg2_glo_bin (HepG2 cells [6]; kinetics bin) was “inactive”. The hepg2_glo_emax_0 (HepG2 cells [6]; time point 0) was 0, the hepg2_glo_pod_0 (HepG2 cells [6]; time point 0) was -4.417 and the hepg2_glo_wauc_0 (HepG2 cells [6]; time point 0) was 0. For the same molecule, the hepg2_glo_emax_8 (HepG2 cells [6]; time point 8) was 0, the hepg2_glo_pod_8 (HepG2 cells [6]; time point 8) was -4.417 and the hepg2_glo_wauc_8 (HepG2 cells [6]; time point 8) was 0. It also gave a hepg2_glo_emax_16 (HepG2 cells [6]; time point 16) of 0, a hepg2_glo_pod_16 (HepG2 cells [6]; time point 16) of -4.417 and a hepg2_glo_wauc_16 (HepG2 cells [6]; time point 16) of 0. The hepg2_glo_emax_24 (HepG2 cells [6]; time point 24) was 0, the hepg2_glo_pod_24 (HepG2 cells [6]; time point 24) was -4.417 and the hepg2_glo_wauc_24 (HepG2 cells [6]; time point 24) was 0. For the same molecule, the hepg2_glo_emax_32 (HepG2 cells [6]; time point 32) was 0, the hepg2_glo_pod_32 (HepG2 cells [6]; time point 32) was -4.417 and the hepg2_glo_wauc_32 (HepG2 cells [6]; time point 32) was 0. For the same molecule, the hepg2_glo_emax_40 (HepG2 cells [6]; time point 40) was 0, the hepg2_glo_pod_40 (HepG2 cells [6]; time point 40) was -4.417 and the hepg2_glo_wauc_40 (HepG2 cells [6]; time point 40) was 0. The EC50 (HEK293 cells [7]; HEK293, read-out: hek293_flor_ec50_0) was over 38.3 µM, the EC50 (HEK293 cells [7]; HEK293, read-out: hek293_flor_ec50_8) was over 38.3 µM and the EC50 (HEK293 cells [7]; HEK293, read-out: hek293_flor_ec50_16) was over 38.3 µM. It also gave an EC50 (HEK293 cells [7]; HEK293, read-out: hek293_flor_ec50_24) of over 38.3 µM, an EC50 (HEK293 cells [7]; HEK293, read-out: hek293_flor_ec50_32) of over 38.3 µM and an EC50 (HEK293 cells [7]; HEK293, read-out: hek293_flor_ec50_40) of over 38.3 µM. The information [8] was 0.

In the case of Phenol, isopropylated, phosphate (3:1), the “increase NRF2 TF activity, POD potency” value (NRF2) is given as 4.21 log10(M)*-1.

For `CC(=O)O[C@H]1CC[C@@]2(C)C(=CC[C@@H]3[C@@H]2CC[C@]2(C)C(C(C)=O)=CC[C@@H]32)C1` [Dehydropregnenolone acetate], the “increase NRF2 TF activity, POD potency” value (NRF2) is listed as 4.85 log10(M)*-1.
